Reference: patent US8722052B2, “Vaccinia virus protein A46 peptide and use thereof” (priority 2008, dated 2014)
Ends that are not written are not given here.

Experiments:
Mal = target: T1, Mal (Homo sapiens, UniProt P58753); assay: His peptide pulldown of overexpressed Flag-Mal from HEK293_T lysates; type: binding; details: 25 μM His-peptide, Ni-agarose beads, 2 hr at 4° C.
T1 construct: expressed in transfected cells; host or cells: HEK293_T, lysed in 1% NP-40 buffer
Protocol: (§1) HEK293_T cells were seeded in 6 well plate (1.5×10^5 cells/ml) 24 hours before transfection with 1 μg/well Flag-Mal and 2 μg/well Flag-TRAM encoding plasmids. The total amount of plasmid DNA transfected into the cells was made up to […] by adding pcDNA. 24 hours post-transfection cells were lysed in 1% NP-40 lysis buffer containing 20 mM imidazole. The experimental lysates were incubated with 25 μM His-A464 peptide ((H-H-H-H-H-H-[…]) (SEQ ID NO. 66) and 40 μL of Ni-agarose beads for 2 hr at 4° C. Control samples were incubated with either beads only or beads and 25 μM His-A467 peptide (H-H-H-H-H-H-[…]) (SEQ ID NO. 67). After incubation beads were washed 5 times in lysis buffer with imidazole. Proteins were resolved by SDS-PAGE, and transferred membranes immunoblotted for Flag. Data is representative of four experiments; and
(§2) HEK293_T cells were seeded in 6 well plates (1.5×10^5 cells/ml) 24 hours before transfection. 8 μl of GeneJuice was mixed with 32 μl of serum-free DMEM (SFM) per transfection and incubated for 5 min at room temperature before adding 1 μg per transfection of Flag-Mal or 2 μg of Flag-TRAM encoding plasmid DNA. GeneJuice/SFM/DNA mixture was then incubated for 15 min at room temperature before adding to the cells. […] The signal was read using Odyssey Infrared Imaging System, LI-COR® Biosciences.

TRAM = target: T2, TRAM (Homo sapiens, UniProt Q86XR7); assay: His peptide pulldown of overexpressed Flag-TRAM from HEK293_T lysates; type: binding; details: 25 μM His-peptide, Ni-agarose beads, 2 hr at 4° C.
T2 construct: expressed in transfected cells; host or cells: HEK293_T, lysed in 1% NP-40 buffer
T2 sequence (Q86XR7 whole entry): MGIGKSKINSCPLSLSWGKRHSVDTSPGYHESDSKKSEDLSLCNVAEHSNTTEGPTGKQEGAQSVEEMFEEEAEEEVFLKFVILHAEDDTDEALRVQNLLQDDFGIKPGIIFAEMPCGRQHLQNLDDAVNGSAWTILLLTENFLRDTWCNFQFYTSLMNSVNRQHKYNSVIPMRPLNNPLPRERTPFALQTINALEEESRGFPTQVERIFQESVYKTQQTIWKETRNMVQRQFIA
Protocol: as §1, §2

[1] = peptide solubility (observation)
TLR4 = type: cell-based, human; details: THP-1; peptide 20 or 40 μM 1 h before 100 ng/ml LPS; 6 h
TLR4, sequence (O00206 24-839): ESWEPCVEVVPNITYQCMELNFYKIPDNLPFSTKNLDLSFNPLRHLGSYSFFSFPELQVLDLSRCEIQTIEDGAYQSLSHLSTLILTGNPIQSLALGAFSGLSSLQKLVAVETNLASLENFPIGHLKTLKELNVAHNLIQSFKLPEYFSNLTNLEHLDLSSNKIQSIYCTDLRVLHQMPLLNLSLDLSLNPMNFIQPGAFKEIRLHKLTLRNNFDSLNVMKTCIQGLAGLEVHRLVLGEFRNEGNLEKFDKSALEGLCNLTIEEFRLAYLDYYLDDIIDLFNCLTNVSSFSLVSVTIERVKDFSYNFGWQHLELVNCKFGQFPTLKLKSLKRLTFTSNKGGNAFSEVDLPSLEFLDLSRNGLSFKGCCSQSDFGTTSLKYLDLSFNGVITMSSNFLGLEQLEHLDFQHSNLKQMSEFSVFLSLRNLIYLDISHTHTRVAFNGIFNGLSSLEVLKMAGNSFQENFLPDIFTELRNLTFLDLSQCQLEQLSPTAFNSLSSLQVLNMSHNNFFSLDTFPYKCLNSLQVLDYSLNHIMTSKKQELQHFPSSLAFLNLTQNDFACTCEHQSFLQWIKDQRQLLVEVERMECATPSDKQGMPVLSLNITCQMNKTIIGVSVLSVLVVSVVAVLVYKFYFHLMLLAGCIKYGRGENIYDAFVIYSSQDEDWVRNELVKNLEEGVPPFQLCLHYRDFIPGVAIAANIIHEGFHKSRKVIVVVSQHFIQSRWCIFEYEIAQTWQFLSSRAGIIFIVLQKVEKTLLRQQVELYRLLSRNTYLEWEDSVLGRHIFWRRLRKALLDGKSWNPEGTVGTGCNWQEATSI
TLR4, sequence (Q9Y6Y9 17-160 partner limits assumed): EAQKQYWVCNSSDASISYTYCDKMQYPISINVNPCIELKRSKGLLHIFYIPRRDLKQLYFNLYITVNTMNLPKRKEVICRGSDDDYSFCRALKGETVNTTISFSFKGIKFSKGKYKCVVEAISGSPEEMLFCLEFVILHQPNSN

TLRs = assay: TLR responses in human cells; type: cell-based
[2] = test system: bacterial-induced inflammation; details: murine model; McCoy et al, 2005; cited from earlier work
[3] = test system: LPS-induced inflammatory mediators; details: Tsung et al, 2007; cited from earlier work

T1 sequence (P58753 whole entry): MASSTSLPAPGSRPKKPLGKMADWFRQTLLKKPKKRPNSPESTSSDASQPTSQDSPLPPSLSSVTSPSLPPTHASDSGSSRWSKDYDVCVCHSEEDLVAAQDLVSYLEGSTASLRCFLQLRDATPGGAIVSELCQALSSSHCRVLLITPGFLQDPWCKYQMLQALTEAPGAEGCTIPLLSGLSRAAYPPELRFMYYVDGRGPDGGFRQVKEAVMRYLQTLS

H-H-H-H-H-H-KYSFKLILAEY (HHHHHHKYSFKLILAEY) [His-A464]
pulldown of overexpressed Mal (Mal): capable of pulling down overexpressed Mal or TRAM
pulldown of overexpressed TRAM (TRAM): capable of pulling down overexpressed Mal or TRAM

H-H-H-H-H-H-RNTISGNIYSA [His-A467]
pulldown of overexpressed Mal (Mal): not
pulldown of overexpressed TRAM (TRAM): not

KYSFKLILAAYRRRRRRRRR [Peptide E10A, KYSFKLILAAY-9R]
solubility of the peptide [1]: insoluble

P13 (DIVKLTVYDCIRRRRRRRRR) [Peptide P13]
inhibition of LPS-induced TNFα production (TLR4): even at a high dose of 40 μM, was ineffective at inhibiting TLR4
ability to block TLR responses in human cells (TLRs): unable to block TLR responses in human cells
reduction of in vivo bacterial-induced inflammation [2]: can reduce
reduction of LPS-induced inflammatory mediators in mice [3]: can reduce
